Patent US4215215A, “9-Phenyl-nonate traene compounds” (Hoffmann-La Roche Inc., priority 1979, dated 1980)

How the values were obtained:
in vivo = settings: mouse, ip, mice; for LD50 at 24 h: After 1 day; for LD50 at 24 h / LD50 at 240 h / LD50 at 480 h: intraperitoneal, in rape-oil; for LD50 at 240 h: After 10 days; for LD50 at 480 h: After 20 days; for LD50: intraperitoneal administration in rape-oil, no time stated, read-out: acute toxicity [LD50]
papillomas = assay: Papilloma test (tumors induced with dimethylbenzanthracene and croton oil); format: in vivo; settings: intraperitoneal, within 2 weeks
Source text: The compounds of formula I are effective for utilizing tumors such as papillomas. In the papilloma test, tumors induced with dimethylbenzanthracene and croton oil regress. The diameters of the papillomae decline within 2 weeks on intraperitoneal administration.

SMILES | LD50 at 24 h (in vivo) [mg/kg] | LD50 at 240 h (in vivo) [mg/kg] | LD50 at 480 h (in vivo) [mg/kg] | LD50 (in vivo) [mg/kg] | decline of the diameters of the papillomae (papillomas; 50 mg/kg/week) [%] | decline of the diameters of the papillomae (papillomas; 100 mg/kg/week) [%] | decline of the diameters of the papillomae (papillomas; 25 mg/kg/week) [%]
COc1cc(C)c(C=CC(C)=CC=CC(C)=CC(=O)O)c(C)c1C [Substance A, 9-(4-methoxy-2,3,6-trimethyl-phenyl)-3,7-dimethyl-nona-2,4,6,8-tetraen-1-oic acid] | > 4000 | 700 | 700 | 700 | 38 | 69 | 
CCOC(=O)C=C(C)C=CC=C(C)C=Cc1c(C)cc(OC)c(C)c1C [Substance B, 9-(4-methoxy-2,3,6-trimethyl-phenyl)-3,7-dimethyl-nona-2,4,6,8-tetraen-1-oic acid ethyl ester] | > 4000 | 1900 | 1000 | 1000 | 63 |  | 45
